The record followed here is ChEMBL document CHEMBL1127903, “Heteroaromatic Taxol Analogues: The Chemistry and Biological Activities of 3-Furyl and 3-Pyridyl Substituted Taxanes” (1994).

The test system of test [1] is B16. Briefly: Tested for cytotoxic effect against B16 melanoma cells relative to taxol as1. It counts as functional, Mus musculus.
Test [2] concerns the target Tubulin alpha chain (Sus scrofa) (UniProt P02550). Briefly: Tested for the effect on polymerization of the tubulin present by microtubule assembly assay relative to taxol as1. It counts as functional.
For test [3], the system named is B16. Briefly: Tested for cytotoxic effect against B16 melanoma cells. The test is classed as functional, Mus musculus.
The target in test [4] is Tubulin alpha chain (Sus scrofa) (UniProt P02550). Briefly: Tested for the effect on polymerization of the tubulin present by microtubule assembly assay. It counts as functional.
Chain of Tubulin alpha chain (Sus scrofa) (P02550 whole entry, looked up): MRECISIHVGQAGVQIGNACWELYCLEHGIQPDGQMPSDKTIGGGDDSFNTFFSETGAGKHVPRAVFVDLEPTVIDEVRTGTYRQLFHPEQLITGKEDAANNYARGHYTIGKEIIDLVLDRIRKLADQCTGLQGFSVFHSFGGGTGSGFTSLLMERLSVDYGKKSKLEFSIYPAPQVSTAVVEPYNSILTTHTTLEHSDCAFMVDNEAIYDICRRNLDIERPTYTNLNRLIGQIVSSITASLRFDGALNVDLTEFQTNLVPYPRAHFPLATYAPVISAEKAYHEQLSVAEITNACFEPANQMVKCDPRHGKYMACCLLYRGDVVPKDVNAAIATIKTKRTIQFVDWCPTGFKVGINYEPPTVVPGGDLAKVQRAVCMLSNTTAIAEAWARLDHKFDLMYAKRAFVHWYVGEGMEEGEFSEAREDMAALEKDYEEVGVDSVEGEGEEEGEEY

For the compound `CC(=O)O[C@H]1C(=O)[C@@]2(C)[C@H]([C@H](OC(=O)c3ccccc3)[C@]3(O)C[C@H](OC(=O)[C@H](O)[C@@H](NC(=O)c4ccccc4)c4ccncc4)C(C)=C1C3(C)C)[C@]1(OC(C)=O)CO[C@@H]1C[C@@H]2O`, the ED50 ratio was 1.3 in test [1] and 0.4 in test [2].
The corresponding values for `CC(=O)O[C@H]1C(=O)[C@@]2(C)[C@H]([C@H](OC(=O)c3ccccc3)[C@]3(O)C[C@H](OC(=O)[C@H](O)[C@@H](NC(=O)c4ccccc4)c4ccco4)C(C)=C1C3(C)C)[C@]1(OC(C)=O)CO[C@@H]1C[C@@H]2O` are 0.3 and 0.9.
The corresponding values for `CC(=O)O[C@H]1C(=O)[C@@]2(C)[C@H]([C@H](OC(=O)c3ccccc3)[C@]3(O)C[C@H](OC(=O)[C@H](O)[C@@H](NC(=O)c4ccccc4)c4ccccn4)C(C)=C1C3(C)C)[C@]1(OC(C)=O)CO[C@@H]1C[C@@H]2O` are 0.8 and 0.7.
The corresponding values for `CC(=O)O[C@H]1C(=O)[C@@]2(C)[C@H]([C@H](OC(=O)c3ccccc3)[C@]3(O)C[C@H](OC(=O)[C@H](O)[C@@H](NC(=O)c4ccccc4)c4cccnc4)C(C)=C1C3(C)C)[C@]1(OC(C)=O)CO[C@@H]1C[C@@H]2O` are 27 and 0.5.
On to `CC(=O)O[C@H]1C(=O)[C@@]2(C)[C@H]([C@H](OC(=O)c3ccccc3)[C@]3(O)C[C@H](OC(=O)[C@H](O)[C@@H](NC(=O)c4ccccc4)c4ccoc4)C(C)=C1C3(C)C)[C@]1(OC(C)=O)CO[C@@H]1C[C@@H]2O`, for which the ED50 ratio was 3.3 in test [1] and 0.9 in test [2].
As for `CC(=O)O[C@H]1C(=O)[C@@]2(C)[C@H]([C@H](OC(=O)c3ccccc3)[C@]3(O)C[C@H](OC(=O)[C@H](O)[C@@H](NC(=O)c4ccccc4)c4ccccc4)C(C)=C1C3(C)C)[C@]1(OC(C)=O)CO[C@@H]1C[C@@H]2O` [PACLITAXEL], the ED50 ratio in test [3] and in test [4] was 1 in each case.
